Results as given in ChEMBL document CHEMBL2095176, “GSK Tuberculosis Screening Data”.
Values after ≈ are worked out from the molar mass of the structure shown.

What follows are compounds tested on Mycobacterium tuberculosis variant bovis BCG (assay: microbe, parasite or virus in culture).
Type: functional
In the case of `O=C(NCc1ccc2c(c1)OCO2)c1c(C(F)(F)F)nc2ccccn12`, the MIC90 is reported as 3.4 µM (≈ 1.24 µg/mL). Compound `Cc1cc(OCC(=O)Nc2ccccc2)c2cc(Br)ccc2n1` has an MIC90 of 2 µM (≈ 0.742 µg/mL). Compound `FC(F)(F)c1cc(SCc2ccccc2)nc(-c2ccccn2)n1` has an MIC90 of 7.1 µM (≈ 2.47 µg/mL). `O=C(Nc1nc(-c2ccccn2)cs1)c1cccc(Oc2ccccc2)c1` gave an MIC90 of 3.4 µM (≈ 1.27 µg/mL). Compound `Cc1cc(N2CCCN(C)CC2)nc(Nc2cc(F)cc(F)c2)n1` has an MIC90 of 3.4 µM (≈ 1.13 µg/mL). Work on `COc1ccccc1OCCCCn1c(C2CC2)nc2ccccc21` yielded an MIC90 of 3 µM (≈ 1.01 µg/mL). With `Cc1ccc2nc(C(F)(F)F)c(C(=O)NCc3ccc(C)o3)n2c1` the MIC90 was 4.4 µM (≈ 1.48 µg/mL). Compound `c1csc(-c2nnc(Sc3ccnc(N4CCN(c5ccncc5)CC4)n3)n2CCCN2CCOCC2)c1` has an MIC90 of 5.4 µM (≈ 2.97 µg/mL). Compound `O=C(Nc1nc(-c2ccccn2)cs1)c1ccc(Br)o1` has an MIC90 of 3.5 µM (≈ 1.23 µg/mL). Work on `Fc1ccc(F)c(-c2noc(CC3CCN(Cc4ccsc4)C3)n2)c1` (stereo not drawn) yielded an MIC90 of 3.5 µM (≈ 1.26 µg/mL). `NC(=O)c1cc(-c2ccsc2)ccc1OCCOc1ccccc1` showed an MIC90 of 2.7 µM (≈ 0.916 µg/mL). `Br.CC1(C)NC(N)=NC(=N)N1OCCCOc1ccc(Cl)cc1Cl` was tested, and the MIC90 was 4.5 µM. Work on `Nc1ccccc1NC1CCN(Cc2ccccc2)CC1` yielded an MIC90 of 3.6 µM (≈ 1.01 µg/mL). Work on `O=C(Nc1nc(-c2ccccn2)cs1)c1ccc(-c2ccc(F)cc2)s1` yielded an MIC90 of 3.6 µM (≈ 1.37 µg/mL). `CCCCOc1ccc(C(=O)Nc2nc(-c3ccccn3)cs2)cc1OCC` gave an MIC90 of 3.6 µM (≈ 1.43 µg/mL). `O=C(Nc1cccc(C(=O)N2CCCC(c3nc4ccccc4s3)C2)c1)c1cccs1` (stereo not drawn) gave an MIC90 of 3.6 µM (≈ 1.61 µg/mL). `CC(C)n1ncc2c(C(=O)NCC(c3ccco3)N3CCCC3)cc(-c3ccccc3)nc21` (stereo not drawn) gave an MIC90 of 3.6 µM (≈ 1.6 µg/mL). `COc1ccc(-c2ccc(Nc3cccc(S(=O)(=O)CCN4CCc5ccccc5C4)c3)nc2)cn1` was tested, and the MIC90 was 3.6 µM (≈ 1.8 µg/mL). With `C=CCNCCS(=O)(=O)c1cccc(Nc2ncc(-c3ccc(OC)nc3)cn2)c1` the MIC90 was 3.6 µM (≈ 1.53 µg/mL). Work on `CC(C)NCc1ccc(-c2ccc(NS(=O)(=O)c3ccc(F)cc3)cc2)cc1` yielded an MIC90 of 3.6 µM (≈ 1.43 µg/mL). `O=C(Nc1nnc(-c2ccccc2)o1)c1cccc(C(F)(F)F)c1` gave an MIC90 of 3.6 µM (≈ 1.2 µg/mL). In the case of `CS(=O)(=O)c1ccc(C(=O)Nc2nc(-c3ccccn3)cs2)cc1`, the MIC90 is reported as 3.6 µM (≈ 1.29 µg/mL). Compound `COc1cccc(Nc2cc(C(C)(C)C)nc(-c3ccccn3)n2)c1` has an MIC90 of 3.6 µM (≈ 1.2 µg/mL). `CCS(=O)(=O)c1ccc(C(=O)Nc2nc(-c3ccccn3)cs2)cc1` was tested, and the MIC90 was 3.7 µM (≈ 1.38 µg/mL). `O=C(NCCCn1nc(Cl)c(N2CCCNCC2)cc1=O)Nc1ccc(-c2ccccc2)cc1` gave an MIC90 of 3.7 µM (≈ 1.78 µg/mL). Compound `c1ccc(Nc2cc(-c3ccccc3)nc(-c3ccccn3)n2)cc1` has an MIC90 of 3.7 µM (≈ 1.2 µg/mL). Compound `Cc1ccc(-c2nnc(NC(=O)c3ccc(C#N)cc3)o2)cc1C` has an MIC90 of 3.7 µM (≈ 1.18 µg/mL). For `COc1ccc(-c2cc(C(=O)NC3CCCCNC3=O)n3nc(C(C)(C)C)cc3n2)cc1` (stereo not drawn), the MIC90 was 3.7 µM (≈ 1.61 µg/mL). Compound `COc1ccc(N2CCN(c3ccc(C#N)cc3C(F)(F)F)CC2)c(OC)c1` has an MIC90 of 3.7 µM (≈ 1.45 µg/mL). Work on `CCOc1cc(OC)c(C(=O)Nc2cccc3c2CCNC3C)cc1Cl` (stereo not drawn) yielded an MIC90 of 3.7 µM (≈ 1.39 µg/mL). `O=C(C=Cc1ccccc1)N1CCN(Cc2ccc3c(c2)OCO3)CC1` was tested, and the MIC90 was 2.9 µM (≈ 1.02 µg/mL). Work on `Cc1cc(CN2CCC3(CC2)OCCc2sccc23)oc1C` yielded an MIC90 of 2.1 µM (≈ 0.667 µg/mL). In the case of `COc1ccc(-c2nc(-c3cccc(NC(=O)Cc4ccc(F)cc4)c3)no2)cc1OC`, the MIC90 is reported as 2.3 µM (≈ 0.997 µg/mL). `CSc1cccc(C(=O)Nc2nc(-c3ccccn3)cs2)c1` gave an MIC90 of 4.6 µM (≈ 1.51 µg/mL). Compound `CCc1cc(=O)[nH]c(-n2nc(C)cc2NC(=O)c2cc3ccccc3o2)n1` has an MIC90 of 3.8 µM (≈ 1.38 µg/mL). `O=C(Nc1nnc(-c2ccc3c(c2)CCCC3)o1)c1ccc(Cl)s1` showed an MIC90 of 3.8 µM (≈ 1.37 µg/mL). `Cc1ccc2c(Cl)c(C(=O)NC3=NCCS3)sc2c1` was tested, and the MIC90 was 3.8 µM (≈ 1.18 µg/mL). `O=C(/C=C/c1ccc(OC(F)(F)F)cc1)NC1CCN(c2ncccc2C(F)(F)F)CC1` gave an MIC90 of 3.8 µM (≈ 1.75 µg/mL). `Cc1ccc2nc(C(F)(F)F)c(C(=O)NCc3ccco3)n2c1` showed an MIC90 of 4.9 µM (≈ 1.58 µg/mL). Work on `Cc1ccc(-n2ncc3c(N4CCCNCC4)nc(C4CC4)nc32)cc1` yielded an MIC90 of 3.9 µM (≈ 1.36 µg/mL). `Cc1nc2ccccc2n1CC(O)COc1ccc(NC(=O)c2ccccc2)cc1` (stereo not drawn) gave an MIC90 of 3.9 µM (≈ 1.57 µg/mL). In the case of `O=C(Nc1nnc(-c2ccc(Cl)cc2)o1)c1ccc(F)cc1`, the MIC90 is reported as 3.9 µM (≈ 1.24 µg/mL). `O=C(Nc1ccc(Oc2ccccc2)cc1)NC1CCCCC1` showed an MIC90 of 3.9 µM (≈ 1.21 µg/mL). Work on `CSc1ccc(-c2nnc(NC(=O)c3cccc(F)c3)o2)cc1` yielded an MIC90 of 3.9 µM (≈ 1.28 µg/mL). `COc1ccc(CCC(=O)Nc2ccccc2Nc2ccc(OC)cc2)cc1` was tested, and the MIC90 was 3.9 µM (≈ 1.47 µg/mL). For `Cc1ccc(OCC(=O)Nc2ccc(C(=O)c3c(C)nc4sccn34)cc2)c(C)c1`, the MIC90 was 3.9 µM (≈ 1.64 µg/mL). Compound `CS(=O)(=O)N1CCN(c2ccccc2NC(=O)C(Cl)(Cl)Cl)CC1` has an MIC90 of 3.9 µM (≈ 1.56 µg/mL). In the case of `Cc1ccccc1CN1CCc2nc(N3CCN(c4ncccn4)CC3)ncc2C1`, the MIC90 is reported as 4 µM (≈ 1.61 µg/mL). In the case of `O=C(Nc1nnc(SCc2ccc(Cl)cc2)s1)c1ccccn1`, the MIC90 is reported as 4 µM (≈ 1.45 µg/mL). Work on `O=C(COCC(=O)Nc1nc(-c2ccccn2)cs1)Nc1nc(-c2ccccn2)cs1` yielded an MIC90 of 4 µM (≈ 1.81 µg/mL). `Cc1ccc(-c2nnc(NC(=O)c3ccc(Cl)s3)o2)c(C)c1` showed an MIC90 of 4 µM (≈ 1.34 µg/mL). Work on `Br.CCc1ccccc1OCCCON1C(=N)N=C(N)NC1(C)C` yielded an MIC90 of 2.8 µM. `Cc1nn(CC(C)C)c2sc(C(=O)Nc3nc(-c4ccccn4)cs3)cc12` showed an MIC90 of 3.7 µM (≈ 1.47 µg/mL). `COc1cc(OC)cc(C(=O)Nc2nc(-c3ccccn3)cs2)c1` showed an MIC90 of 3.4 µM (≈ 1.16 µg/mL). With `Br.Cc1ccccc1OCCCON1C(=N)N=C(N)NC1(C)C` the MIC90 was 7 µM. Work on `Cc1occc1C(=O)Nc1nc(-c2ccccn2)nc2ccsc12` yielded an MIC90 of 1.1 µM (≈ 0.37 µg/mL). For `CCc1c(C)nc(-n2nc(C)cc2NC(=O)CCc2ccccc2)[nH]c1=O`, the MIC90 was 3.8 µM (≈ 1.39 µg/mL). In the case of `Cc1ccc(OCC(=O)Nc2cc(C)nn2-c2nc(C)cc(O)n2)cc1`, the MIC90 is reported as 3.6 µM (≈ 1.27 µg/mL).
